Reference: patent publication US5110927A (The United States of America as represented by the …, priority 1987, dated 1992)
“Also recorded” adds a separate entry of the source.

Columns and labels:
[1] = target: α1-adrenoceptor (3H-prazosin binding sites); test: displacement of 3H-prazosin from rat cerebral cortical (brain) membranes; settings: for -logIC50: 3H-prazosin displacement, rat cerebral cortical membranes; for affinity to alpha1-adrenoceptors (in words): discussion of Table 1
Experimental: IC50 values and apparent Ki values were determined as in Table 1.
Rat brain cortices were homogenized in approximately 30 volumes/wet weight of 50 mM Tris buffer, pH 7.4, containing 10 mM MgCl2 by use of a Polytron (setting 6 for 10 seconds). It should be noted that this buffer was used throughout the experimental procedures. The homogenate was centrifuged at 48,000×g for 10 minutes in a Sorvall RC-5B centrifuge. The resulting pellet was resuspended in buffer by use of a Polytron and recentrifuged. This process was repeated and the pellet was resuspended in approximately 200 volumes for affinity studies or 20 volumes for irreversibility experiments.
Specific binding was defined as the difference between total binding (measured in the absence of any ligand) and non-specific binding (measured in the presence of 10 microM phentolamine). Duplicate tubes were used for each condition. Reaction tubes were incubated for 30 minutes at 30° C., then diluted to 5 ml with ice cold buffer, and filtered under reduced pressure through Whatman GF/C glass fiber filters. The reaction tubes and filters were washed three additional times with buffer.

[2] = system: α1-adrenoceptor (3H-prazosin binding sites); test: irreversibility experiment: membranes preincubated with compound, washed, assayed for saturation of 3H-prazosin binding; parameters: species or system rat; settings: for irreversible blockade / effect on 3H-prazosin binding sites (in words): membranes, preincubation and washing
[3] = system: spontaneously hypertensive rats; settings: conscious; previously shown; cited from earlier work
[4] = system: alpha1-adrenoceptors and other receptors; settings: prior art, cited from earlier work

| -logIC50 [1] | affinity to alpha1-adrenoceptors (in words) [1] | Compound | further results |
| --- | --- | --- | --- |
| 7.97 | low affinity | COc1cc2nc(N3CCN(C(=O)n4ccnc4)CC3)nc(N)c2cc1OC [Compound 2] | – |
| 5.27 | low affinity | COc1cc2nc(N3CCN(C(=O)CBr)CC3)nc(N)c2cc1OC [Compound 3] | – |
| 9.15 | – | COC(=O)/C=C/C(=O)N1CCN(c2nc(N)c3cc(OC)c(OC)cc3n2)CC1 [Compound 4] | – |
| 8.01 | – | COC(=O)/C=C/C=C/C(=O)N1CCN(c2nc(N)c3cc(OC)c(OC)cc3n2)CC1 [Compound 5] | – |
| 8.81 | high affinity | C/C=C/C=C/C(=O)N1CCN(c2nc(N)c3cc(OC)c(OC)cc3n2)CC1 [Compound 6] | irreversible blockade / effect on 3H-prazosin binding sites (in words) [2]: did not irreversibly block alpha1 -adrenoceptors; also recorded: do not attach irreversibly to the receptor |
| 8.47 | affinity is considerably decreased | COc1cc2nc(N3CCN(C(=O)CCc4ccccc4)CC3)nc(N)c2cc1OC [Compound 7] | – |
| 7.90 | affinity is considerably decreased | COc1cc2nc(N3CCN(C(=O)COc4ccccc4)CC3)nc(N)c2cc1OC [Compound 8] | – |
| 9.16 | – | COc1cc2nc(N3CCN(C(=O)/C=C/c4ccccc4)CC3)nc(N)c2cc1OC [Compound 9] | reduction of blood pressure in spontaneously hypertensive rats [3]: capable of reducing blood pressure; irreversible blockade / effect on 3H-prazosin binding sites (in words) [2]: do not attach irreversibly to the receptor |
| 7.92 | – | COc1cc2nc(N3CCN(C(=O)/C=C/c4ccc(F)cc4)CC3)nc(N)c2cc1OC [Compound 10] | – |
| 7.90 | – | COc1cc2nc(N3CCN(C(=O)C=Cc4ccc(Cl)cc4)CC3)nc(N)c2cc1OC [Compound 11] | – |
| 7.10 | – | COc1cc2nc(N3CCN(C(=O)C=Cc4ccc(Br)cc4)CC3)nc(N)c2cc1OC [Compound 12] | – |
| 7.68 | – | COc1cc2nc(N3CCN(C(=O)C=Cc4cccc(F)c4)CC3)nc(N)c2cc1OC [Compound 13] | – |
| 6.94 | – | COc1cc2nc(N3CCN(C(=O)C=Cc4c(F)c(F)c(F)c(F)c4F)CC3)nc(N)c2cc1OC [Compound 14] | – |
| 8.47 | – | COc1ccc(/C=C/C(=O)N2CCN(c3nc(N)c4cc(OC)c(OC)cc4n3)CC2)cc1 [Compound 15] | – |
| 6.97 | – | COc1cc2nc(N3CCN(C(=O)/C=C/c4ccc(NC(=O)CBr)cc4)CC3)nc(N)c2cc1OC [Compound 18] | – |
| 7.79 | – | COC(=O)/C=C/C(=O)Nc1ccc(/C=C/C(=O)N2CCN(c3nc(N)c4cc(OC)c(OC)cc4n3)CC2)cc1 [Compound 19] | – |
| 7.89 | – | COc1cc2nc(N3CCN(C(=O)C(F)=Cc4ccccc4)CC3)nc(N)c2cc1OC [Compound 20] | – |
| 8.06 | – | COc1cc2nc(N3CCN(C(=O)C(=Cc4ccccc4)N=[N+]=[N-])CC3)nc(N)c2cc1OC [Compound 21] | – |
| 7.51 | – | COc1cc2nc(N3CCN(C(=O)C(=Cc4ccccc4)c4ccccc4)CC3)nc(N)c2cc1OC [Compound 22] | – |
| 7.06 | reduced affinity considerably | COc1cc2nc(N3CCN(C(=O)/C=C/C(=O)c4ccccc4)CC3)nc(N)c2cc1OC [Compound 23] | – |
| 7.31 | decreased considerably | COc1cc2nc(N3CCN(C(=O)c4ccc5ccccc5c4)CC3)nc(N)c2cc1OC [Compound 24] | – |

| -logIC50 [1] | affinity to alpha1-adrenoceptors (in words) [1] | Compound | further results |
| --- | --- | --- | --- |
| 7.15 | very low affinity | COc1cc2nc(N3CCN(C(=O)C4C(C=C(C)C)C4(C)C)CC3)nc(N)c2cc1OC (stereo not shown) [Compound 27] | – |
| 7.92 | – | COc1cc2nc(N3CCN(C(=O)C#Cc4ccccc4)CC3)nc(N)c2cc1OC [Compound 28] | – |
| 8.27 | decrease | COc1cc2nc(N3CCN(C(=S)NC4CCCCC4)CC3)nc(N)c2cc1OC [Compound 30] | – |
| 8.62 | – | COc1cc2nc(N3CCN(C(=S)Nc4ccc(F)cc4)CC3)nc(N)c2cc1OC [Compound 31] | – |
| 7.80 | – | COc1cc2nc(N3CCN(C(=S)Nc4c(F)c(F)c(F)c(F)c4F)CC3)nc(N)c2cc1OC [Compound 32] | – |
| 7.70 | decrease | COc1cc2nc(N3CCN(C(=S)Nc4ccc(N=[N+]=[N-])cc4)CC3)nc(N)c2cc1OC [Compound 33] | – |
| 7.01 | – | COc1cc2nc(N3CCN(C(=S)Nc4ccc(NC(=S)N5CC5)cc4)CC3)nc(N)c2cc1OC [Compound 36] | – |
| 7.43 | – | COC(=O)C=Cc1ccc(NC(=S)N2CCN(c3nc(N)c4cc(OC)c(OC)cc4n3)CC2)cc1 [Compound 37] | – |
| 7.41 | – | COc1cc2nc(N3CCN(C(=S)Nc4cccc5ccccc45)CC3)nc(N)c2cc1OC [Compound 38] | – |
| 7.56 | considerably decreased the affinity | COc1cc2nc(N3CCN(C(=O)Nc4ccccc4)CC3)nc(N)c2cc1OC [Compound 39] | – |
| 7.93 | – | COc1cc2nc(N3CCN(C(=O)c4cccc(CCl)c4)CC3)nc(N)c2cc1OC [Compound 40] | – |
| 8.07 | – | COC(=O)/C=C/C(=O)Nc1ccc(CCCCC(=O)N2CCN(c3nc(N)c4cc(OC)c(OC)cc4n3)CC2)cc1 [Compound 42] | – |
| 7.94 | low affinity | COc1cc2nc(N3CCN(S(=O)(=O)c4ccc(C)cc4)CC3)nc(N)c2cc1OC [Compound 43] | – |
| 7.47 | low affinity | COc1cc2nc(N3CCN(S(=O)(=O)c4cccs4)CC3)nc(N)c2cc1OC [Compound 44] | – |
| 7.49 | failed to yield an active compound | COc1cc2nc(N3CCN(C(=O)c4cc(Cl)nc(Cl)n4)CC3)nc(N)c2cc1OC [Compound 45] | – |
| 8.61 | high affinity | COc1cc2nc(N3CCN(C(=O)C4CC5C=CC4C5)CC3)nc(N)c2cc1OC (stereo not shown) [Compound 46] | – |
| 8.4 | – | COc1cc2nc(N3CCN(C(=O)C4=CC5CCC4CC5)CC3)nc(N)c2cc1OC [Compound 48] | overall behaviour compared with compound 47 [2]: behaves similarly to 47 in those aspects which were investigated |
| – | – | CCOC(=O)N1c2ccccc2C=CC1OCC (stereo not shown) [N-ethoxycarbonyl-2-ethoxy-1,2-dihydroquinoline] | concentration required relative to more specific chemoreactive labels ([4]; factor higher): about 10^4; receptor specificity (in words) [4]: receptor specificity of N-ethoxycarbonyl-2-ethoxy-1,2-dihydroquinoline is also low |
| – | – | CC(COc1ccccc1)N(CCCl)Cc1ccccc1 (stereo not shown) [phenoxybenzamine, reference compound] | receptor specificity (in words) [4]: not very specific; Kd (KD) of remaining 3H-prazosin binding sites (in words) ([2]; after preincubation and washing): without significant Kd changes in the remaining sites; blockade of 3H-prazosin binding sites by phenoxybenzamine ([2]; brain membranes, FIG. 4): approximately 85%; irreversible blockade / effect on 3H-prazosin binding sites (in words) [2]: block almost all ^3 -prazosin binding sites in brain membranes |
| – | – | c1c[nH]c(CNCCCCCCNCCSSCCNCCCCCCNCc2ccc[nH]2)c1 [pyrextramine] | receptor specificity (in words) [4]: block peripheral alpha2 -adrenergic responses as well |

| Compound | -logIC50 [1] | affinity to alpha1-adrenoceptors (in words) [1] | further results |
| --- | --- | --- | --- |
| COc1cc2nc(N3CCN(C(=O)[C@@H]4C[C@H]4c4ccccc4)CC3)nc(N)c2cc1OC (relative stereo) [Compound 25] | 9.29 | affinity similar to that of the cinnamoyl compound No. 9 | – |
| COc1cc2nc(N3CCN(C(=O)[C@@H]4O[C@H]4c4ccccc4)CC3)nc(N)c2cc1OC (relative stereo) [Compound 26] | 7.45 | two orders of magnitude lower than that of cyclopropane | – |
| COc1cc2nc(N3CCN(C(=O)/C=C/c4ccc(N=[N+]=[N-])cc4)CC3)nc(N)c2cc1OC [Compound 16] | 9.49 | single exception; also recorded: improved the affinity | – |
| COc1cc2nc(N3CCN(C(=O)C=Cc4ccc(N=C=S)cc4)CC3)nc(N)c2cc1OC [Compound 17] | 6.99 | – | – |
| COc1cc2nc(N3CCN(C(=S)Nc4ccccc4)CC3)nc(N)c2cc1OC [Compound 29] | – | much higher affinity for alpha1 -adrenoceptors than prazosin | – |
| COc1cc2nc(N3CCN(C(=S)Nc4ccc(N=C=S)cc4)CC3)nc(N)c2cc1OC [Compound 34] | 7.18 | – | – |
| COc1cc2nc(N3CCN(C(=S)Nc4cccc(N=C=S)c4)CC3)nc(N)c2cc1OC [Compound 35] | 7.30 | – | – |
| COc1cc2nc(N3CCN(C(=O)c4ccc(N=C=S)c(I)c4)CC3)nc(N)c2cc1OC [Compound 41] | 7.29 | much lower affinity | – |
